Experimental findings from US10563272B2, “Compositions comprising Metarhizium fungi and use thereof as a pesticide” (Cotton Research and Development Corporation, priority 2015, dated 2020) are described below.

Data set [1] relates to Creontiades dilutus (green mirids). Description: Foliar spray trial on Bollgard II cotton, Norwood 2010-11 (Example 7): green mirids. Type of data set: in vivo. The settings on record: first spray, three DAT; BC 667/DAT 511 500 mL/ha, fipronil 62.5 mL/ha. The procedure:
(§1) The trial was conducted on commercial Bollgard II® cotton crops at Norwood near Moree, NSW from 5 Dec. 2010 to 19 Feb. 2011. The cotton was at the early squaring stage, when it was attractive to green mirids (Khan et al. 2004).
(§2) The study evaluated the efficacy of the following treatments against green mirids, green vegetable bugs and predatory insects: • 1. 500 mL/ha BC 667 spore in oil (1×10^7 spores/ml); • 2. 500 mL/ha DAT 511 spore in oil (1×10^7 spores/ml); • 3. 62.5 mL/ha Fipronil (conventional insecticide); and • 4. Unsprayed (control).
The treatment plots were arranged in a randomized complete block design with four replicates per treatment. Each replicated plot measured 0.5 ha. Foliar application of each treatment was made on 18 Jan. 2011 using a ground spray rig fitted with flat fan nozzles to achieve a droplet size of 80 250 μm. The treatment was applied in the mornings when temperature was between 20° C. and 28° C. […]
Pre-treatment counts of green mirid adults and nymphs, predatory beetles, predatory bugs, predatory lacewings and spiders were made by visual inspection of whole cotton plants. Both adults and nymphs of the beneficial insects were counted. Plants were assessed in randomly selected one-metre lengths of row of each treatment replicate (i.e. four metres per treatment). […] Data are expressed as numbers of individuals of that species counted per metre for each treatment.

In the next data set the test system is lacewings. The data set can be described thus: Foliar spray trial on Bollgard II cotton, Norwood 2010-11 (Example 7): lacewings. Conditions: fipronil 62.5 mL/ha; for number of lacewings per meter: 1st spray, BC 667/DAT 511 0.50 L/ha; for number of lacewings per metre: 2nd spray, BC 667/DAT 511 0.5 L/ha. Type of data set: in vivo, Chrysopa spp., Micromus tasmaniae. The procedure: as §1, §2
The treatment plots were arranged in a randomized complete block design with four replicates per treatment. Each replicated plot measured 0.5 ha. Foliar application of each treatment was made on 18 Jan. 2011 using a ground spray rig fitted with flat fan nozzles to achieve a droplet size of 80 250 μm. The treatment was applied in the mornings when temperature was between 20° C. and 28° C. The timing of treatment was based on an economic threshold of 0.5 green mirids per metre, the IPM guideline and recommendation by CottonLogic.
Pre-treatment counts of green mirid adults and nymphs, predatory beetles, predatory bugs, predatory lacewings and spiders were made by visual inspection of whole cotton plants. Both adults and nymphs of the beneficial insects were counted. Plants were assessed in randomly selected one-metre lengths of row of each treatment replicate (i.e. four metres per treatment). In all, two spray applications of each treatment were made. The first spray was made on 18 Jan. 2011. Post-treatment counts of the first spray application were taken 3, 7 and 14 days after treatment (DAT) (first spray). A second spray application was done on 1 Feb. 2011 when green mirid adults plus nymphs reached the threshold of 0.5 per metre. Post-treatment counts of the second spray application were taken 3, 7, 14, 21 and 28 DAT. Data are expressed as numbers of individuals of that species counted per metre for each treatment.

Data set [2] concerns spiders. Description: Rate trial on conventional cotton, Norwood 2012 (Example 10): spiders. The class given is in vivo, Lycosa spp., Oxyopes spp., Salticidae spp., Araneus spp. The settings on record: P>0.05. The procedure:
This trial was conducted on commercial conventional cotton crops on a farm at Norwood (29° 28'S, 149° 50′E) near Moree, NSW, from 28 Feb. to 21 Mar. 2012. The cotton used for the trial was at the early squaring stage, when it was attractive to green mirids (Khan et al. 2004).
The efficacy of the following treatments against green mirids and predatory insects were evaluated: • 1. 250 mL/ha DAT 511 spore in oil (1×10^7 spores/ml); • 2. 500 mL/ha DAT 511 spore in oil (1×10^7 spores/ml); • 3. 1 L/ha DAT 511 spore in oil (1×10^7 spores/ml); • 4. 62.5 mL/ha of Fipronil; and • 5. Unsprayed (negative control).
The treatment plots were arranged in a randomized complete block design with six replicates per treatment. Each replicated plot measured 40 m wide (40 rows) and 90 m long.
Foliar application of each treatment was made on 28 Feb. (for both green mirids and beneficial insects) and 13 Mar. […]
Pre-treatment counts of adult and nymph green mirids, predatory beetles, predatory bugs, predatory lacewings and spiders were made by visual inspection of whole cotton plants. Both adults and nymphs of beneficial insects were counted. Plants were assessed in randomly selected one-metre lengths of row of each treatment replicate (i.e. 6 m per treatment). […] Data are expressed as numbers of green mirid adults and nymphs counted per metre per treatment.

A further data set has as its system predatory lacewings. The data set can be described thus: Rate trial on conventional cotton refuge crops, Undabri 2012 (Example 12): predatory lacewings. The class given is in vivo, Chrysopa spp., Micromus tasmaniae. Conditions: DAT 511 250 mL/ha, 500 mL/ha and 1.0 L/ha; fipronil 62.5 mL/ha. The procedure: (§3) This trial was conducted using commercial conventional cotton refuge crops at Undabri in Goondiwindi (28° 55'S, 150° 31′E) from 14 Feb. to 6 Mar. 2012.
(§4) The efficacy of the following treatments against green mirids, green vegetable bugs and predatory insects was assessed: • 1. 250 mL/ha DAT 511 spore in oil (1×10^7 spores/ml); • 2. 500 mL/ha DAT 511 spore in oil (1×10^7 spores/ml); • 3. 1 L/ha DAT 511 spore in oil (1×10^7 spores/ml); • 4. 62.5 mL/ha fipronil; and • 5. Unsprayed (negative control).
(§5) The plots were arranged in a randomized complete block design with three replicates per treatment. Each replicated plot measured 8 m (8 rows) wide and 250 m long.
(§6) Foliar applications of each treatment were made on 14 Feb. 2012 using a ground spray rig fitted with flat fan nozzles to achieve a droplet size of 200 μm. All insecticide formulations were water miscible. All treatments were applied using a spray volume of 100 L/ha. The untreated (negative control) plot was left unsprayed and the plot treated with synthetic insecticide received two applications similar to, and on the same date as, the plots treated with the fungus.
(§7) For each replicate, visual counts of adults and nymphs of green mirids, green vegetable bugs (GVB), apple dimpling bugs and predatory insects on whole cotton plants were made in a randomly selected 1 m length of row of cotton plants (i.e. 6 m per treatment). […]

The subject of data set [3] is spiders. The data set can be described thus: Rate trial on conventional cotton refuge crops, Undabri 2012 (Example 12): spiders. Type of data set: in vivo, Lycosa spp., Oxyopes spp., Salticidae spp., Araneus spp. The settings on record: DAT 511 250 mL/ha, 500 mL/ha and 1.0 L/ha; fipronil 62.5 mL/ha. The procedure:
as §3, §4, §5, §6, §7

`N#Cc1nn(-c2c(Cl)cc(C(F)(F)F)cc2Cl)c(N)c1[S+]([O-])C(F)(F)F` (centres unmarked) [fipronil]: in data set [1], the green mirid mortality is reported as 100%. For the same compound, the “number of lacewings per meter” value came to 0.00 ± 0.00 a per meter with lacewings (3 DAT), 0.00 ± 0.00 a per meter with lacewings (7 DAT), 0.33 ± 0.33 a per meter with lacewings (14 DAT) and 0.67 ± 0.33 a per meter with lacewings (pre-spray counts 18 Jan. 2011). The “number of lacewings per metre” value in the data set on lacewings (3 DAT) was 0.33 ± 0.33a per metre; with lacewings (7 DAT), 0.67 ± 0.33a per metre; in the data set on lacewings (14 DAT) it was 0.67 ± 0.33a per metre; in the data set on lacewings (21 DAT), 1.67 ± 0.33a per metre; with lacewings (28 DAT), 1.33 ± 0.33a per metre; in the data set with lacewings (pre-spray counts 1 Feb. 2011) it was 0.33 ± 0.33a per metre. In the data set on spiders [2], the “number of spiders versus unsprayed (control) plots” value is reported as “No significant difference”. Moreover, the “effect on number of predatory lacewings per metre” value in the data set with predatory lacewings was “significantly lower”. Besides, in the data set on spiders [3], the “effect on number of spiders per metre” value is “significantly lower”.
